Laboratory results: PubChem BioAssay (NCI)
Several values for one entry are separate records, joined by “and”; a condition that tells them apart may be missing. Identical values can stand only once.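 1) Cells in 96-well plates. 2) Compound, 48 h, 5 concentrations. 3) Linear interpolation between surrounding doses. 4) Unreached endpoint = highest concentration. GI50 = concentration required for 50% inhibition of growth. TGI: total growth inhibition.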

Key:
Assay in all cases: DTP human tumour cell line panel, 48 h
786-0 renal = test system: 786-0 renal
SF-268 CNS = test system: SF-268 CNS
HT29 colon = test system: HT29 colon
K-562 leukemia = test system: K-562 leukemia
MDA-MB-435 = test system: MDA-MB-435
HCC-2998 colon = test system: HCC-2998 colon
A549 NSCLC = test system: A549 NSCLC
U251 CNS = test system: U251 CNS
CAKI-1 renal = test system: CAKI-1 renal
IGROV1 ovarian = test system: IGROV1 ovarian

Row | Structure (SMILES) | GI50 (786-0 renal) | TGI (786-0 renal) | GI50 (SF-268 CNS) | TGI (SF-268 CNS) | GI50 (HT29 colon) | TGI (HT29 colon) | GI50 (K-562 leukemia) | TGI (K-562 leukemia) | GI50 (MDA-MB-435) | TGI (MDA-MB-435) | GI50 (HCC-2998 colon) | TGI (HCC-2998 colon) | GI50 (A549 NSCLC) | TGI (A549 NSCLC) | GI50 (U251 CNS) | TGI (U251 CNS) | GI50 (CAKI-1 renal) | TGI (CAKI-1 renal) | GI50 (IGROV1 ovarian) | TGI (IGROV1 ovarian)
1 | CNC(=O)c1cc(COc2nnc(Nc3ccc(Cl)cc3)c3ccoc23)ccn1 | 2.36 µM and > 10 µM | 6.7 µM and > 10 µM | 4.66 µM and > 10 µM | 26.2 µM and > 10 µM | 9.45 µM and > 10 µM | 31.2 µM and > 10 µM | 19.6 µM and > 10 µM | 72 µM and > 10 µM | 10.4 µM and > 10 µM | 43.9 µM and > 10 µM | 17 µM and > 10 µM | 52.7 µM and > 10 µM | 4.66 µM and > 10 µM | 20.1 µM and > 10 µM | 5.34 µM and 4.26 µM | 16.8 µM and > 10 µM | 3.46 µM and > 10 µM | 19.7 µM and > 10 µM | 11.4 µM and > 10 µM | 27.4 µM and > 10 µM
2 | Cc1ccccc1NC(=S)Nc1ccccn1 | > 100 µM | > 100 µM | > 100 µM | > 100 µM | > 100 µM | > 100 µM | > 100 µM | > 100 µM | > 100 µM | > 100 µM | > 100 µM | > 100 µM | > 100 µM | > 100 µM | > 100 µM | > 100 µM | > 100 µM | > 100 µM | > 100 µM | > 100 µM
3 | O=S(=O)(Nc1ncccn1)c1ccc(N=Nc2ccc(O)c3ncccc23)cc1 | 7.17 µM | 58.1 µM | 9.14 µM | 87 µM | 22.6 µM | 78 µM | 3.23 µM | 61.2 µM | 5.31 µM | 21.8 µM | 12.2 µM | 29 µM | 5.46 µM | 29 µM | 4.71 µM | 30.4 µM | 3.82 µM | 21 µM | 4.37 µM | 33 µM
4 | COc1cccc2c1C(=O)c1c(O)c3c(c(O)c1C2=O)CC(O)(C(C)=O)CC3OC1CC(N)C(O)C(C)O1 (stereo unspecified) | 0.0177 µg/mL | 0.0836 µg/mL |  | 0.262 µg/mL | 0.0242 µg/mL | 1.22 µg/mL | 0.0156 µg/mL | 0.922 µg/mL | 0.0894 µg/mL | 0.33 µg/mL | 0.243 µg/mL | 0.912 µg/mL |  | 1.85 µg/mL | 0.0151 µg/mL | 1.84 µg/mL |  | 0.015 µg/mL |  | 1.68 µg/mL
5 | Nc1ncnc2c1ncn2C1OC(COP(=O)(O)CP(=O)(O)O)C(O)C1O (stereo unspecified) |  | > 100 µM |  | > 100 µM |  | > 100 µM |  | > 100 µM |  | > 100 µM |  | > 100 µM |  | > 100 µM |  | > 100 µM |  | > 100 µM |  | > 100 µM
6 | Cn1cc(-c2nonc2-c2c[nH]c3ccccc23)c2ccccc21 | 0.611 µM | 7.94 µM | 0.725 µM | 13.2 µM | 0.35 µM | 10.8 µM | 0.223 µM | > 36.9 µM | 0.182 µM | 0.494 µM | 1.26 µM | 7.08 µM | 0.728 µM | 22.1 µM | 0.443 µM | 18.6 µM | 0.413 µM | 15 µM | 0.574 µM | 18.3 µM
7 | Cc1ccc(NCCCN2CCN(CCCNc3ccc(C)c4sc5ccccc5c(=O)c34)CC2)c2c(=O)c3ccccc3sc12 |  | > 100 µM |  | > 100 µM |  | > 100 µM |  | > 100 µM |  | > 100 µM |  | > 100 µM |  | > 100 µM |  | > 100 µM |  | > 100 µM |  | > 100 µM
